The values below are quoted from earlier work in patent US20110160154A1, “SUBSTITUTED PIPERAZINES” (Auspex Pharmaceuticals, Inc., priority 2007, published 2011).

The test system of data set [1] is late sodium current (INa). The conditions noted are these: literature value (Antzelevitch et al. 2004); read-out: IC50 for inhibition of late sodium current (INa).
The conditions of data set [2]: background statement; ranolazine must be taken frequently.

As a reminder, the IC50 is the midpoint of a concentration-inhibition curve. Turning to `COc1ccccc1OCC(O)CN1CCN(CC(=O)Nc2c(C)cccc2C)CC1` (centres unmarked) [ranolazine, N-(2,6-dimethyl-phenyl)-2-{4-[2-hydroxy-3-(2-methoxy-phenoxy)-propyl]-piperazin-1-yl}-acetamide], the IC50 in data set [1] is 5 to 21 µM. The half-life entry in data set [2] is reported as “less than two”.
